Measurements taken from ChEMBL document CHEMBL1909046, “DrugMatrix in vitro pharmacology data”.

Tests used:
[1] = target: 5-hydroxytryptamine receptor 6 (Homo sapiens, UniProt P50406); type: cell membranes, HeLa, Membrane; conditions: hela; note: in other assays of this panel Not Active means under 50% inhibition at 10 µM
[2] = DRUGMATRIX: Sodium/nucleoside co-transporter radioligand binding (ligand: nitrobenzylthioinosine); type: cell membranes, Cavia porcellus, Dunkin-Hartley, Cerebral cortex, Membrane; conditions: Not Active = under 50% inhibition at 10 µM
[3] = DRUGMATRIX: Glutamate, AMPA radioligand binding (ligand: [3H] AMPA); type: cell membranes, Rattus norvegicus, Wistar, Cerebral cortex, Membrane; conditions: Not Active = under 50% inhibition at 10 µM
[4] = target: T1, Muscarinic acetylcholine receptor M4 (Homo sapiens, UniProt P08173); type: cell membranes, CHO-K1, Membrane; conditions: cho-k1; note: in other assays of this panel Not Active means under 50% inhibition at 10 µM
T1 sequence (P08173 whole entry): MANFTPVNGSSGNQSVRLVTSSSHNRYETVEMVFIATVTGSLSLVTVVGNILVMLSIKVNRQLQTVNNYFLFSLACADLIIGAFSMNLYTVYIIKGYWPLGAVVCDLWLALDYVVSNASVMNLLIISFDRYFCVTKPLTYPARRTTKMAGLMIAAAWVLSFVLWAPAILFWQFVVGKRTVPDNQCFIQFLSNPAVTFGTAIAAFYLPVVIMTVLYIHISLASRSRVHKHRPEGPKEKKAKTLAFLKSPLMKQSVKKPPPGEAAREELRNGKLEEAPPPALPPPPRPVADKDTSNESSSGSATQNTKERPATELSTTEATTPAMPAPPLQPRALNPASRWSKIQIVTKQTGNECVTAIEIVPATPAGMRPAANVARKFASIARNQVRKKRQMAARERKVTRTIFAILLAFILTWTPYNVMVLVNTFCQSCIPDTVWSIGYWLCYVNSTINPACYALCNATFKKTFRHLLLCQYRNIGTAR

[5] = DRUGMATRIX: Serotonin (5-Hydroxytryptamine) 5-HT3 radioligand binding (ligand: [3H] GR-65630); type: cell membranes, Membrane; conditions: hek293; Not Active = under 50% inhibition at 10 µM
[6] = target: 5-hydroxytryptamine receptor 2B (Homo sapiens, UniProt P41595); type: cell membranes, CHO-K1, Membrane; conditions: cho-k1; note: in other assays of this panel Not Active means under 50% inhibition at 10 µM
[7] = DRUGMATRIX: Purinergic P2X radioligand binding (ligand: [3H] alpha, beta-Methylene-ATP); type: cell membranes, Oryctolagus cuniculus, New Zealand albino, Urinary bladder, Membrane; conditions: Not Active = under 50% inhibition at 10 µM
Nitric oxide synthase 1 = Nitric oxide synthase 1 (Rattus norvegicus, UniProt P29476); type: tissue-based, Cerebellum; note: in other assays of this panel Not Active means under 50% inhibition at 10 µM
[8] = DRUGMATRIX: Phosphodiesterase PDE4 enzyme inhibition (substrate: [3H]cAMP + cAMP); conditions: u-937; Not Active = under 50% inhibition at 10 µM
Cytochrome P450 2A6 = target: T2, Cytochrome P450 2A6 (Homo sapiens, UniProt P11509); conditions: bti-tn-5b1-4; note: in other assays of this panel Not Active means under 50% inhibition at 10 µM
T2 sequence (P11509 whole entry): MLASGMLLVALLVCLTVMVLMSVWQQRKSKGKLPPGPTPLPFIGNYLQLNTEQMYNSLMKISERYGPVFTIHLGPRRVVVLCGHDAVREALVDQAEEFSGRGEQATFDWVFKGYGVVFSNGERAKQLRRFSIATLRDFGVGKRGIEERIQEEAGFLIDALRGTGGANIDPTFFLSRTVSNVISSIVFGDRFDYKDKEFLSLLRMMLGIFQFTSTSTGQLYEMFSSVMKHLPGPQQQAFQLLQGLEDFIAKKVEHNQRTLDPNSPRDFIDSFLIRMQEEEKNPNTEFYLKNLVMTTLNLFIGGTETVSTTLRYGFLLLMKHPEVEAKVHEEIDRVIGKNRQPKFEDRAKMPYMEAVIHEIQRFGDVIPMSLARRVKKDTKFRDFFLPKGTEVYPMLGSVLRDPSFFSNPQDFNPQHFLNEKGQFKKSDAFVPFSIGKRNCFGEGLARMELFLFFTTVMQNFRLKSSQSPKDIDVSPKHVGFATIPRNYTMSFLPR

Endothelin-1 receptor = target: T3, Endothelin-1 receptor (Homo sapiens, UniProt P25101); type: cell membranes, Membrane; conditions: cho-k1; note: in other assays of this panel Not Active means under 50% inhibition at 10 µM
T3 sequence (P25101 whole entry): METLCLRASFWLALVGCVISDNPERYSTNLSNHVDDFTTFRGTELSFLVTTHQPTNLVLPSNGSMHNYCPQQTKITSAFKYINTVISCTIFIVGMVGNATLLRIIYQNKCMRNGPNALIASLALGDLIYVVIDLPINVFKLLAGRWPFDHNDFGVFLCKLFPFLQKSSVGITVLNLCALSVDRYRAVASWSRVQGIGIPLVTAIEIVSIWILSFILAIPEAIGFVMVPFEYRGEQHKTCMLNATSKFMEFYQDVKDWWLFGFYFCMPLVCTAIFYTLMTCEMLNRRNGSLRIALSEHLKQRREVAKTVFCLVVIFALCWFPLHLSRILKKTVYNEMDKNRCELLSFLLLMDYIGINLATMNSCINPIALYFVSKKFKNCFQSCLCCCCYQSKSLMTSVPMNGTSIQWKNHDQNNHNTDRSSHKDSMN

[9] = target: T4, Polyunsaturated fatty acid lipoxygenase ALOX15 (Oryctolagus cuniculus, UniProt P12530); assay: biochemical; type: tissue-based, Reticulocytes; conditions: reticulocytes
T4 sequence (P12530 whole entry): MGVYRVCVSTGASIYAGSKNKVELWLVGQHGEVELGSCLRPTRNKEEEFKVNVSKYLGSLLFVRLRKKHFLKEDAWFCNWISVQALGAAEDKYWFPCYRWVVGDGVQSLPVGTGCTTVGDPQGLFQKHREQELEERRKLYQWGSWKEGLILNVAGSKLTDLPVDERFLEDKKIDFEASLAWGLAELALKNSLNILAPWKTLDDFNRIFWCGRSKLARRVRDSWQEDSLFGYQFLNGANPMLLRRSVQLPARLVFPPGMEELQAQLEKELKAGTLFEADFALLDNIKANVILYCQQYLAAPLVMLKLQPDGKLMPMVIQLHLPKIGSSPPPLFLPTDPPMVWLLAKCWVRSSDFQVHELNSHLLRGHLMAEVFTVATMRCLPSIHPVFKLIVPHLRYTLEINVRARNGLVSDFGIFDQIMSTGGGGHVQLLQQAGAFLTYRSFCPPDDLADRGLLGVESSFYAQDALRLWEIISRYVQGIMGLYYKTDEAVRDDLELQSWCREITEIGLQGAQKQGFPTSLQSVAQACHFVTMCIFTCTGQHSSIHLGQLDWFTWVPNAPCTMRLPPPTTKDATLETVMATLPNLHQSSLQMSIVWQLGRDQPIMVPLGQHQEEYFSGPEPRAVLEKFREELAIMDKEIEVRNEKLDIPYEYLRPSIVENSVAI

[10] = target: Mitogen-activated protein kinase 14 (Homo sapiens, UniProt Q16539); parameters: species or system Escherichia coli
[11] = target: Tyrosine-protein kinase Fyn (Homo sapiens, UniProt P06241); assay: biochemical; type: cell-based, Insect cells; conditions: insect cells
Chain of Tyrosine-protein kinase Fyn (P06241 whole entry): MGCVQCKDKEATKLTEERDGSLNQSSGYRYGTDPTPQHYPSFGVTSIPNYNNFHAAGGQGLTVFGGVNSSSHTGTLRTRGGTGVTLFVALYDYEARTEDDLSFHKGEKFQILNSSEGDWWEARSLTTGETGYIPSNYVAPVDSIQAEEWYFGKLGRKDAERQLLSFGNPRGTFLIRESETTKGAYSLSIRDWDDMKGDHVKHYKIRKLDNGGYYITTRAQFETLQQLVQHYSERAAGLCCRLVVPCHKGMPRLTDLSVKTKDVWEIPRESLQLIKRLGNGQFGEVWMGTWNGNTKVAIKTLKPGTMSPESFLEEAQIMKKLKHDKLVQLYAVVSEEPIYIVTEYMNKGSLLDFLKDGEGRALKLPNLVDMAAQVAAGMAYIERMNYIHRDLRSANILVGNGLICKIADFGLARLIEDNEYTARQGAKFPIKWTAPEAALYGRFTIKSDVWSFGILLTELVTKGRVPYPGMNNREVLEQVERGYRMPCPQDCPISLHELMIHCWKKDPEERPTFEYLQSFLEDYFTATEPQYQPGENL

Chain of Nitric oxide synthase 1 (P29476 whole entry): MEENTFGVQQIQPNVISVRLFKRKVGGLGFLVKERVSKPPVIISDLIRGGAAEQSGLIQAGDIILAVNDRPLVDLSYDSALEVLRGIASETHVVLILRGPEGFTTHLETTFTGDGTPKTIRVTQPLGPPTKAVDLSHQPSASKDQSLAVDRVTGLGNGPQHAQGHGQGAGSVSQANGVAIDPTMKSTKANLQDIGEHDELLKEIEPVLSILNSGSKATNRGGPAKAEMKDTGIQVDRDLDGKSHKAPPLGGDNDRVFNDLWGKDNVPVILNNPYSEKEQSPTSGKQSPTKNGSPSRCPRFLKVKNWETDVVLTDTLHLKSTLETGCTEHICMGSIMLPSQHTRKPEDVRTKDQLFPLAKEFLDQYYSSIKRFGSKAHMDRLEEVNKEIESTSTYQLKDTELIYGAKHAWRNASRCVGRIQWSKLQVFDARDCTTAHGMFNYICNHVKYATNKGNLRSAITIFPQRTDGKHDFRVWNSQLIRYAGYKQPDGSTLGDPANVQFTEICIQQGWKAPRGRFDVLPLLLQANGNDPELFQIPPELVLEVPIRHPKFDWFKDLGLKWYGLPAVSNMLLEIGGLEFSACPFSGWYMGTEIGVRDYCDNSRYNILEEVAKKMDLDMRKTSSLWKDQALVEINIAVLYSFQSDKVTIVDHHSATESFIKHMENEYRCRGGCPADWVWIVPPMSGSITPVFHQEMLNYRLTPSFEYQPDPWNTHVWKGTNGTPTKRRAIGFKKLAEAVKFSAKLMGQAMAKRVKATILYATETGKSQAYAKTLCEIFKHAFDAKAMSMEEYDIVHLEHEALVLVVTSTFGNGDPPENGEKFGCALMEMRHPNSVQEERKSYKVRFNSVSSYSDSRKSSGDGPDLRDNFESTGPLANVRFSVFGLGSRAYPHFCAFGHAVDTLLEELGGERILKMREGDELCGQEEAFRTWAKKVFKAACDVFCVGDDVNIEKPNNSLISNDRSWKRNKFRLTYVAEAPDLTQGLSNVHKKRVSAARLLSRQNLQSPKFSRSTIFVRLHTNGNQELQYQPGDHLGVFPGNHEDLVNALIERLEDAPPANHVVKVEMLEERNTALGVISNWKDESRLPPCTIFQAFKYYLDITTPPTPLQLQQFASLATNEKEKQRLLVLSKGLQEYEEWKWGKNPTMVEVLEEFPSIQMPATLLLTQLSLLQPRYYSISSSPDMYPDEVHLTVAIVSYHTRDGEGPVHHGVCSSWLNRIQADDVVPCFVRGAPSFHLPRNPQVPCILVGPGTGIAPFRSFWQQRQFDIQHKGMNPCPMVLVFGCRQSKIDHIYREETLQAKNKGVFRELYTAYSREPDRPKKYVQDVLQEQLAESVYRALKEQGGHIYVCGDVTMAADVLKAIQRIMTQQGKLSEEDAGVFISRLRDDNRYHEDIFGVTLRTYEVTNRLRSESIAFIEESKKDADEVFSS
Chain of 5-hydroxytryptamine receptor 2B (P41595 whole entry): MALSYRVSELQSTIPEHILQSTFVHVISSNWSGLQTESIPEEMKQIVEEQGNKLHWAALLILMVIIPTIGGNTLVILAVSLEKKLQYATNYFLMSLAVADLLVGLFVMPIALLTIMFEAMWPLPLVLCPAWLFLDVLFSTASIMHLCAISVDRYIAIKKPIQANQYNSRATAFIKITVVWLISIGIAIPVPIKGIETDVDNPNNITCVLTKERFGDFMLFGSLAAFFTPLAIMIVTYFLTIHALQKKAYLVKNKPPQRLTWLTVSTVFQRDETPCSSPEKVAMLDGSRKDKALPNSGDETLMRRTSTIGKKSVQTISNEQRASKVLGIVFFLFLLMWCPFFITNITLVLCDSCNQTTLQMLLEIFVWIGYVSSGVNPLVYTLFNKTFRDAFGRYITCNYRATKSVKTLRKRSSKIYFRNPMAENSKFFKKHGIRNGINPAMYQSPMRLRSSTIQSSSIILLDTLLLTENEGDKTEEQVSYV
Chain of Mitogen-activated protein kinase 14 (Q16539 whole entry): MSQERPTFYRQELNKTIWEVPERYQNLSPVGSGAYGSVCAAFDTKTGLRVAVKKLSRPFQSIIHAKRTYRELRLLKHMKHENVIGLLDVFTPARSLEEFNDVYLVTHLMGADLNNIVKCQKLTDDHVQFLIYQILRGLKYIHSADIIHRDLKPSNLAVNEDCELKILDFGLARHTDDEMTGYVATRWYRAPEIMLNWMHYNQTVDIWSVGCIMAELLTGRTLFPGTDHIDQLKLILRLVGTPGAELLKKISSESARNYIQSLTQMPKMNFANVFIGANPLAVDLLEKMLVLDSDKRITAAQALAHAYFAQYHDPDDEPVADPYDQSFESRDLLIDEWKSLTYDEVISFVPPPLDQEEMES
Chain of 5-hydroxytryptamine receptor 6 (P50406 whole entry): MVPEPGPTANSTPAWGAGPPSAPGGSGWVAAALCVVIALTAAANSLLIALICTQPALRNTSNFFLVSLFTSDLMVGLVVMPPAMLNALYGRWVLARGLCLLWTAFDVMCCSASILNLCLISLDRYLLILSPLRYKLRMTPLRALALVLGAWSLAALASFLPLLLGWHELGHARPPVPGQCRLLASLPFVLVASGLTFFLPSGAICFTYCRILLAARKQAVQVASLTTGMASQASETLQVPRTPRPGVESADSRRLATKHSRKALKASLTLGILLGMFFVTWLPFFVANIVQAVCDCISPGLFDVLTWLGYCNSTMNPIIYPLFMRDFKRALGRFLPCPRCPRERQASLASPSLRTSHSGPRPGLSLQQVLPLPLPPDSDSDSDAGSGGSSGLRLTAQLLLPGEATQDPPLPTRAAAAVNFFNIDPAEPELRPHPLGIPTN

NCC[C@H](O)C(=O)N[C@@H]1C[C@H](N)[C@@H](O[C@H]2O[C@H](CN)[C@@H](O)[C@H](O)[C@H]2O)[C@H](O)[C@H]1O[C@H]1O[C@H](CO)[C@@H](O)[C@H](N)[C@H]1O [AMIKACIN]
Not Active: IC50 [1] | IC50 [2] | Ki [2] | IC50 [3] | Ki [3] | IC50 [4] | IC50 [5] | Ki [5] | IC50 [6] | IC50 [7] | Ki [7] | IC50 (Nitric oxide synthase 1) | IC50 [8] | Ki [8] | IC50 (Cytochrome P450 2A6) | Ki (Cytochrome P450 2A6) | IC50 (Endothelin-1 receptor) | IC50 [9] | IC50 [10] | IC50 [11]

CC(C)(Oc1ccc(CCNC(=O)c2ccc(Cl)cc2)cc1)C(=O)O [BEZAFIBRATE]
Not Active: IC50 [1] | IC50 [2] | Ki [2] | IC50 [3] | Ki [3] | IC50 [4] | IC50 [5] | Ki [5] | IC50 [6] | IC50 [7] | Ki [7] | IC50 (Nitric oxide synthase 1) | IC50 [8] | Ki [8] | IC50 (Cytochrome P450 2A6) | Ki (Cytochrome P450 2A6) | IC50 (Endothelin-1 receptor) | IC50 [9] | IC50 [10] | IC50 [11]

CCCSc1ccc2nc(NC(=O)OC)[nH]c2c1 [ALBENDAZOLE]
Not Active: IC50 [1] | IC50 [2] | Ki [2] | IC50 [3] | Ki [3] | IC50 [4] | IC50 [5] | Ki [5] | IC50 [6] | IC50 [7] | Ki [7] | IC50 (Nitric oxide synthase 1) | IC50 [8] | Ki [8] | IC50 (Cytochrome P450 2A6) | Ki (Cytochrome P450 2A6) | IC50 (Endothelin-1 receptor) | IC50 [9] | IC50 [10] | IC50 [11]

C=C1C(=O)O[C@@H]2C3O[C@]3(C)CC/C=C(\C)CC[C@@H]12 (stereo not given in full)
Not Active: IC50 [1] | IC50 [2] | Ki [2] | IC50 [3] | Ki [3] | IC50 [4] | IC50 [5] | Ki [5] | IC50 [6] | IC50 [7] | Ki [7] | IC50 (Nitric oxide synthase 1) | IC50 [8] | Ki [8] | IC50 (Cytochrome P450 2A6) | Ki (Cytochrome P450 2A6) | IC50 (Endothelin-1 receptor) | IC50 [9] | IC50 [10] | IC50 [11]

CN1C(C(=O)Nc2ccccn2)=C(O)c2ccccc2S1(=O)=O [PIROXICAM]
Not Active: IC50 [1] | IC50 [2] | Ki [2] | IC50 [3] | Ki [3] | IC50 [4] | IC50 [5] | Ki [5] | IC50 [6] | IC50 [7] | Ki [7] | IC50 (Nitric oxide synthase 1) | IC50 [8] | Ki [8] | IC50 (Cytochrome P450 2A6) | Ki (Cytochrome P450 2A6) | IC50 (Endothelin-1 receptor) | IC50 [9] | IC50 [10] | IC50 [11]

COc1c(N2CCNC(C)C2)c(F)cc2c(=O)c(C(=O)O)cn(C3CC3)c12 (stereo not given) [GATIFLOXACIN]
Not Active: IC50 [1] | IC50 [2] | Ki [2] | IC50 [3] | Ki [3] | IC50 [4] | IC50 [5] | Ki [5] | IC50 [6] | IC50 [7] | Ki [7] | IC50 (Nitric oxide synthase 1) | IC50 [8] | Ki [8] | IC50 (Cytochrome P450 2A6) | Ki (Cytochrome P450 2A6) | IC50 (Endothelin-1 receptor) | IC50 [9] | IC50 [10] | IC50 [11]

CC(/C=C1\SC(=S)N(CC(=O)O)C1=O)=C\c1ccccc1
Not Active: IC50 [1] | IC50 [2] | Ki [2] | IC50 [3] | Ki [3] | IC50 [4] | IC50 [5] | Ki [5] | IC50 [6] | IC50 [7] | Ki [7] | IC50 (Nitric oxide synthase 1) | IC50 [8] | Ki [8] | IC50 (Cytochrome P450 2A6) | Ki (Cytochrome P450 2A6) | IC50 (Endothelin-1 receptor) | IC50 [9] | IC50 [10] | IC50 [11]
